Literature values in patent publication US20090023692A1, “COMPOSITIONS FOR INHIBITING AND PREVENTING VASCULAR OCCLUSION CONTAINING NUTRITIONAL SUPPLEMENTS” (NeursoSci, Inc., priority 2005, published 2009).

Settings: daily administration of low doses (approximately 80-100 mg), patients at risk for cardiovascular events

In the case of `CC(=O)Oc1ccccc1C(=O)O` [aspirin, acetylsalicylic acid], the “reduction of second heart attacks, strokes, and cardiovascular deaths” value is listed as “at least 25%”.
